Holding throughout (assay type): cell-based
The test system of one series is HeLa cells. Put plainly: Cellular uptake of CF-labeled peptides into HeLa cells (flow cytometry). Conditions: for cellular uptake, course over incubation time: 1 µM peptide, 2, 6 and 24 h, heparin wash, trypsinized, flow cytometry fluorescence, mean of n = 3; for cellular uptake, course over incubation time / cellular uptake compared with Arg peptide: DMEM 10% FBS; for cellular uptake, rank among the peptides containing dAAs / cellular uptake compared with Arg peptide: 1 µM peptide, flow cytometry, n = 3; for cellular uptake, rank among the peptides containing dAAs: 2-24 h; for cellular uptake compared with Arg peptide: 24 h. As for the experimental part: (§1) Cellular uptake of peptides was assessed against HeLa (Fig. 5a) and CHO-K1 cells (Fig. 5b) at a concentration of 1 µM and various incubation times (2, 6, and 24 h). […] Not only stabilities against protease digestion but also other factors might contribute to prolongation of the cell-penetrating ability of peptides. […] The number of Arg residues in Arg-rich peptides is very important for their cell-penetrating ability, and six Arg are not enough. […] Substitution of Arg in Arg peptide with Ac5c, Ac5c^dOM, or (αMe)Leu positively affected its cell-penetrating ability compared with Aib. In comparison, among the peptides containing dAAs, (αMe)Leu peptide was the best for HeLa cell, Ac5c peptide was the best for CHO-K1 cell, and Ac5c^dOM peptide was the worst for both cell types (Fig. 5). Although the best peptides were different depending on cell type, the worst peptide was same for both cell types. […] Taken together, a stable helical structure by introducing dAAs into Arg-rich peptide enhanced their cell-penetrating abilities.
(§2) HeLa or CHO-K1 cells were seeded on 24-well culture plates (100,000 cells/well) and incubated in 400 µL of DMEM containing 10% FBS. The medium was then replaced with fresh medium, and a peptide solution was added to each well at a concentration of 1 µM. After each incubation time, the medium was removed and cells were washed with ice-cold PBS with heparin (20 units/mL) and trypsinized. After the addition of medium containing 10% FBS, fluorescence intensity was detected and acquired using an On-chip Flow (On-chip Biotechnologies Co., Ltd, Tokyo, Japan). The results are presented as a mean and standard deviation obtained from 3 samples.

Series [1] relates to CHO-K1 cells. Put plainly: Cellular uptake of CF-labeled peptides into CHO-K1 cells (flow cytometry). Conditions: n = 3; for cellular uptake, course over incubation time: CHO-K1, 1 µM peptide, 2, 6 and 24 h, compared with peptides of only natural α-amino acids; for cellular uptake compared with Arg peptide / cellular uptake, rank among the peptides containing dAAs: CHO-K1, 1 µM peptide; for cellular uptake compared with Arg peptide: DMEM 10% FBS; for cellular uptake, rank among the peptides containing dAAs: 2-24 h. As for the experimental part: as §1, §2

Series [2] concerns CHO-K1 cells. In words: Inhibition of cellular uptake by specific endocytosis inhibitors. Conditions: 30 min pre-incubation 37 °C, 1 µM peptide, 1 h, flow cytometry, n = 3; for uptake in presence of nystatin (caveolae-mediated endocytosis inhibitor): CHO-K1, nystatin 25 µg/mL; for uptake in presence of sucrose (clathrin-mediated endocytosis inhibitor): CHO-K1, sucrose 0.4 M. As to the method:
To obtain further information on the cellular uptake mechanisms of peptides, inhibitory experiments were carried out using specific endocytosis inhibitors (amilorilde: macropinocytosis; sucrose: clathrin-mediated endocytosis; nystatin: caveolae-mediated endocytosis) against CHO-K1 cells (Fig. S5). […] (αMe)Leu peptide appeared to internalize into CHO-K1 cells via all three routes, while Ac5c peptide appeared to internalize mainly via clathrin-mediated endocytosis and caveolae-mediated endocytosis.
CHO-K1 cells were seeded on 24-well culture plates (100,000 cells/well) and incubated in 400 µL of DMEM containing 10% FBS. The medium was then replaced with fresh medium containing 10% FBS in the absence (untreated) or presence of amiloride (5 mM), sucrose (0.4 M), or nystatin (25 µg/mL), cells were pre-incubated at 37 °C for 30 min. A peptide solution was added to each well at a concentration of 1 µM. The medium was removed after 1-h incubation and subsequent operations were conducted in the same manner as cellular uptake experiments.
A c5cAc5c (aMe L e uMe)Leu untreated ami loride su cro se n ystatin
Figure S5. Effects of inhibitors on internalization of peptides against CHO-K1 cells. Error bars represent the standard deviation, n = 3. *P < 0.05, **P < 0.01.

Numbered stars: 1 amine (or outer) side, 2 acyl side, 3 side chain; on linkers, the order of the positions; unused ones are H or OH. Square brackets hold non-standard residues; d marks the D form. Peptide text beside a SMILES is read from it. * marks the point of attachment. 5FAM = O=C1OC2(c3ccc(O)cc3Oc3cc(O)ccc32)c2ccc(C(=O)*)cc21; X1 = CO[C@H]1CC(N[*:1])(C(=O)[*:2])C[C@@H]1OC; αMeL = CC(C)C[C@](C)(N)C(=O)O; Ac5c = NC1(C(=O)O)CCCC1

Data on 3 molecules can be found in article PMC6362038, “Secondary structures and cell-penetrating abilities of arginine-rich peptide foldamers” (Scientific Reports, 2019).

For the molecule `CC(C)C[C@](C)(NC(=O)[C@H](CCCNC(=N)N)NC(=O)[C@H](CCCNC(=N)N)NC(=O)[C@](C)(CC(C)C)NC(=O)[C@H](CCCNC(=N)N)NC(=O)[C@H](CCCNC(=N)N)NC(=O)[C@](C)(CC(C)C)NC(=O)[C@H](CCCNC(=N)N)NC(=O)[C@H](CCCNC(=N)N)NC(=O)CNC(=O)c1ccc2c(c1)C(=O)OC21c2ccc(O)cc2Oc2cc(O)ccc21)C(N)=O` [(αMe)Leu peptide] (5FAM-GRR[αMeL]RR[αMeL]RR[αMeL]-NH2), the “cellular uptake, course over incubation time” value in the series on HeLa cells is “increased cellular uptake from 2 to 6 h incubations and this was maintained after 24 h incubation”; with CHO-K1 cells [1] it was “prolonged cell-penetrating ability”. The “cellular uptake, rank among the peptides containing dAAs” value in the series with HeLa cells is “the best”. The “cellular uptake compared with Arg peptide” value in the series with HeLa cells, in the series on CHO-K1 cells [1] (6 h) and with CHO-K1 cells [1] (24 h) was “higher than that of Arg peptide” throughout. Further, the “uptake in presence of nystatin (caveolae-mediated endocytosis inhibitor)” value in the series with CHO-K1 cells [2] was “significantly decreased”. The “uptake in presence of sucrose (clathrin-mediated endocytosis inhibitor)” value with CHO-K1 cells [2] is given as “significantly decreased”.

On to `N=C(N)NCCC[C@H](NC(=O)CNC(=O)c1ccc2c(c1)C(=O)OC21c2ccc(O)cc2Oc2cc(O)ccc21)C(=O)N[C@@H](CCCNC(=N)N)C(=O)NC1(C(=O)N[C@@H](CCCNC(=N)N)C(=O)N[C@@H](CCCNC(=N)N)C(=O)NC2(C(=O)N[C@@H](CCCNC(=N)N)C(=O)N[C@@H](CCCNC(=N)N)C(=O)NC3(C(N)=O)CCCC3)CCCC2)CCCC1` [Ac5c peptide] (5FAM-GRR[Ac5c]RR[Ac5c]RR[Ac5c]-NH2), for which, in the series on HeLa cells, the “cellular uptake, course over incubation time” value was “increased cellular uptake from 2 to 6 h incubations and this was maintained after 24 h incubation”; the “cellular uptake compared with Arg peptide” value is “higher than that of Arg peptide”. Also, in the series with CHO-K1 cells [1], the “cellular uptake, course over incubation time” value is “prolonged cell-penetrating ability” and the “cellular uptake, rank among the peptides containing dAAs” value is “the best”. In addition, in the series on CHO-K1 cells [1] (6 h), the “cellular uptake compared with Arg peptide” value is “higher than that of Arg peptide”. Also, the “cellular uptake compared with Arg peptide” value in the series on CHO-K1 cells [1] (24 h) is given as “higher than that of Arg peptide”. The “uptake in presence of amiloride (macropinocytosis inhibitor)” value with CHO-K1 cells [2] (CHO-K1, amiloride 5 mM) was “significantly decreased”. Further, in the series on CHO-K1 cells [2], the “uptake in presence of nystatin (caveolae-mediated endocytosis inhibitor)” value is given as “significantly decreased” and the “uptake in presence of sucrose (clathrin-mediated endocytosis inhibitor)” value is “significantly decreased”.

Take `CO[C@H]1CC(NC(=O)[C@H](CCCNC(=N)N)NC(=O)[C@H](CCCNC(=N)N)NC(=O)C2(NC(=O)[C@H](CCCNC(=N)N)NC(=O)[C@H](CCCNC(=N)N)NC(=O)C3(NC(=O)[C@H](CCCNC(=N)N)NC(=O)[C@H](CCCNC(=N)N)NC(=O)CNC(=O)c4ccc5c(c4)C(=O)OC54c5ccc(O)cc5Oc5cc(O)ccc54)C[C@H](OC)[C@@H](OC)C3)C[C@H](OC)[C@@H](OC)C2)(C(N)=O)C[C@@H]1OC` [Ac5c^dOM peptide] (5FAM-GRR[X1]RR[X1]RR[X1]-NH2): the “cellular uptake, course over incubation time” value is listed as “increased up to 24 h” with HeLa cells and “prolonged cell-penetrating ability” in the series on CHO-K1 cells [1]. The “cellular uptake, rank among the peptides containing dAAs” value with HeLa cells and in the series with CHO-K1 cells [1] was “the worst” in each case. The “cellular uptake compared with Arg peptide” value in the series with HeLa cells and with CHO-K1 cells [1] (24 h) was “higher than that of Arg peptide” throughout.
